In patent US11147816B2, “Composition for inducing differentiation and protection of neural stem cells and method for inducing neuro-regeneration using the same composition” (GENUV Inc., priority 2016, dated 2021):

Columns and labels:
[1] = tested on: mouse adult neural stem cells; details: trametinib 10 nM, 100 nM, memantine 5 μM, 10 μM, 4 days
Description: NSC were isolated from the subventricular zone of week 8 mouse brain, treated with 20 ng/ml human basic fibroblast growth factor (bFGF) and 20 ng/ml human epidermal growth factor (EGF) in an IPM medium, and cultured as a suspension in 24-well plates for 7 days.
Two days before the isolation of single cells, 6-well plates were prepared by treating the wells with 10 μg/ml poly-L-ornithine solution and incubating overnight at room temperature for coating. The next day, poly-L-ornithine solution was removed and the plates were washed 3 times with sterilized triple distilled water. […] The culture solution used is N2 culture medium (supplemented with 20 ng/ml bFGF and 20 ng/ml EGF). Right before seeding, the coating solution was suctioned out, and the single cells were uniformly seeded into the culture plate before the plate dried up. Cells were allowed to attach to the plates for about one minute, and after checking that cells were sufficiently attached, an additional 1.5 ml of culture medium (N2 culture medium with 20 ng/ml bFGF and 20 ng/ml EGF) was added to the cells and cultured in a 37° C. incubator for 24 hours.
Wells not treated with amyloid-beta were left to use as negative controls.
Gibco's (Waltham, Mass.) human Aβ (1-42) was purchased to use for the amyloid-beta (Aβ), and the following process was followed to create oligomers. First, amyloid-beta was dissolved in 100% HFIP (1,1,1,3,3,3-hexafluoro-2-propanol) (Sigma, cat#.105228) to obtain a concentration of 1 mg/ml and vortexed at room temperature for 1 hour. Then, it was dried for 10 minutes in a speed Vac, after which DMSO (Sigma, cat#.D2650) was added to bring the concentration to 5 mM and then lightly vortexed at room temperature for 10 minutes. […] The solution was incubated at 4° C. for 24 hours and then added into the cultured cells.
The NCSs were cultured with the daily addition of EGF, bFGF, amyloid-beta, and test materials for 4 days.

[2] = tested on: mouse adult neural stem cells; experiment: qRT-PCR of relative mRNA expression of neuronal markers in mouse adult NSC (Example 4-2); assay type: cell-based; details: 10 nM for 2 days
5XFAD mouse [3] = experiment: Tuj1 expression in the somatosensory cortex (Example 9-1); assay type: in vivo; details: 0.1 mg/kg orally daily for 28 days, vs vehicle
Description: Anti-Tuj1 antibodies were added to the brain tissue slides of 5XFAD mouse in Example 8 and incubated at 4° C. for 1 day, after which the tissue slides were fluorescently stained by incubating with Fluorescein isothiocyanate (FITC)-secondary antibodies (Invitrogen, cat#. A21121) at room temperature for 1 hour. In FIG. 15, the areas marked with arrows (→) indicate cells stained with Tuj1 and the areas marked with arrowheads (▾) indicate plaques formed by amyloid-beta aggregation. Plaques were present in both vehicle-treated and trametinib-treated groups.

5XFAD mouse [4] = experiment: TUNEL assay, neuroprotective activity (Example 10); assay type: in vivo; details: orally daily for 28 days, vs vehicle
Description: The sagittal brain tissue slides described in Example 8 were rehydrated and stained with the TUNEL assay kit (Promega, Wis., USA, cat#. G3250). Specifically, the brain tissue slides were permeabilized with 20 μg/ml proteinase K solution for 10 minutes, incubated with equilibration buffer for 10 minutes, and then incubated with TdT solution at 37° C. for 1 hour. The staining of the somatosensory cortex and subiculum area, areas known to show significant cell death in 5XFAD mouse, were observed. TUNEL assay was also performed on the tissue slides of normal adult mouse brain (as control) to confirm that staining was properly done.

For `CC(=O)Nc1cccc(-n2c(=O)n(C3CC3)c(=O)c3c(Nc4ccc(I)cc4F)n(C)c(=O)c(C)c32)c1` [trametinib, N-(3-{3-cyclopropyl-5-[(2-fluoro-4-iodophenyl)amino]-6,8-dimethyl-2,4,7-trioxo-3,4,6,7-tetrahydropyrido[4,3-d]pyrimidin-1(2H)-yl}phenyl)acetamide], the “cell toxicity / cell death (morphology)” value ([1]; AS703026 10 μM) was “did not elicit cell toxicity”, the “differentiation of NSC into neurons (morphology)” value ([1]; with or without 10 μM oligomeric Aβ(1-42)) was “readily induced the differentiation of NSC into neurons” and the “mRNA expression of cholinergic neuron marker ChAT” value [2] was “increased the expression”. For the same compound, the “mRNA expression of dopaminergic neuron marker TH” value [2] was “increased the expression”, the “mRNA expression of neuronal marker Tuj1” value [2] was “increased the expression” and the “number of cells stained with Tuj1, somatosensory cortex” value (5XFAD mouse [3]) was “significant increase in the number of cells stained with Tuj1”. The “number of TUNEL stained cells in the somatosensory cortex and subiculum” value (5XFAD mouse [4]) was “significantly lower”.
